Key:
ADAM10 [1] = target: T1, ADAM10 (Homo sapiens, UniProt O14672); conditions: cited from earlier work
T1 sequence (O14672 214-748): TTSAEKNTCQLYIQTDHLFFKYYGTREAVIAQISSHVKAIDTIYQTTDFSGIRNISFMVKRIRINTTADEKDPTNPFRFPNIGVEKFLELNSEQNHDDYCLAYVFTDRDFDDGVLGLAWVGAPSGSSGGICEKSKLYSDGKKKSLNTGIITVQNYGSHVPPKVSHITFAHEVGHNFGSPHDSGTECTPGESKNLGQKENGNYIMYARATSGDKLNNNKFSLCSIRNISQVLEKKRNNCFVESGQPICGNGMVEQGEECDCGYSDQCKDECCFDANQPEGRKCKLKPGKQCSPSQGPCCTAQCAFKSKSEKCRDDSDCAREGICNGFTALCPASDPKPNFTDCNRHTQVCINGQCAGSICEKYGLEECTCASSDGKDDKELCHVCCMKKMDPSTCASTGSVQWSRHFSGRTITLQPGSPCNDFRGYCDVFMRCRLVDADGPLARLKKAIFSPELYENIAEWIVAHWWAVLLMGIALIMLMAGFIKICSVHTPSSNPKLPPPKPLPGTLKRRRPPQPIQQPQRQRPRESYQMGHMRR

ADAM17 [2] = target: T2, ADAM17 (Homo sapiens, UniProt P78536); conditions: cited from earlier work
T2 sequence (P78536 215-824, species assumed): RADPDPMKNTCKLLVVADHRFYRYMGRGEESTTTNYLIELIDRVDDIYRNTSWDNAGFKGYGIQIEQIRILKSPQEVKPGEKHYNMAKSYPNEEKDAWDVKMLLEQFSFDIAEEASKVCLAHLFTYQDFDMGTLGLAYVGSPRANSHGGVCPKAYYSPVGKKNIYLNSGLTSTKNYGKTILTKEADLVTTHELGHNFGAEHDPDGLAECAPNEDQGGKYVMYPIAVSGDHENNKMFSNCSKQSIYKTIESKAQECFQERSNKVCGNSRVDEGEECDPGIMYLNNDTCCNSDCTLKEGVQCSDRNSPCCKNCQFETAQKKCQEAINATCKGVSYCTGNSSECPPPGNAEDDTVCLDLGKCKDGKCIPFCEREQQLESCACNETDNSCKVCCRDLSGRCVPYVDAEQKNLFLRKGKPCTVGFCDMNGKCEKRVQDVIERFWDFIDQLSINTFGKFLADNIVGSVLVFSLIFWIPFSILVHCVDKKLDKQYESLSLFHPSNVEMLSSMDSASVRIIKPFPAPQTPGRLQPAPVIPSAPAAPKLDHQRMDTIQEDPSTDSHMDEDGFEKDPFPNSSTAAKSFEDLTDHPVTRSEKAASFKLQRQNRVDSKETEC

[3] = tested on: collagen-induced arthritis model; assay: Collagen-induced arthritis (CIA) in vivo model; parameters: species or system rat
Excerpt: FIG. 1 is a graph showing disease scores of rat collagen-induced arthritis model study of CID3117694. The disease score is used to assess severity of rheumatoid arthritis (RA) by measuring disease activity, functional impairment, and physical damage present. FIG. 2 is a graph showing paw swelling measurements of rat collagen-induced arthritis model study of CID3117694.* FIGS. 3A-F show micrographs of paw swelling observations of rat collagen-induced arthritis model study of CID3117694. […] The following scale was used: Score 0: normal: Score 1: one joint type (A, B or C) has redness and swelling: Score 2: Two joint types have redness and swelling: Score 3: all three joint types have redness and swelling; and Score 4: maximal redness and swelling of the entire paw leads to disappearance of anatomical definition. […] To test the efficacy of using ADAM10 inhibitor. CID3117694, for treatment of rheumatoid arthritis (RA), the instant inventor conducted a study using the […] Collagen-induced Arthritis (CIA) in vivo model. This model is a gold standard for RA pre-clinical studies of investigational drugs.

CXCL16 = assay: Cell-based inhibition of CXCL16 shedding (responsible ADAM 10) in A549 cells; conditions: CXCL16, Human, 10 μM tested
Excerpt: (§1) The instant inventor has discovered a conceptually novel class of ADAM10 inhibitors acting via a non-zinc-binding inhibition mechanism.

CCL2-induced = assay: Cell-based inhibition of CCL2-induced migration of PBMC (responsible ADAM 10); conditions: Human, 10 μM tested
Excerpt: as §1

IL8-induced migration = assay: Cell-based inhibition of IL8-induced migration of neutrophils (responsible ADAM 10); conditions: Human, 10 μM tested
Excerpt: as §1

ICOSL = assay: Cell-based inhibition of ICOSL shedding (responsible ADAM 10) in B cells; conditions: Mouse, 10 μM tested
Excerpt: as §1

[4] = Toxicity in cell-based assays
Excerpt: as §1

ADAM10 [5] = target: T1, ADAM10; assay: ADAM10 inhibition, HTS campaign and profiling; format: biochemical
Excerpt: (§2) An ADAM10 non-Zn-binding inhibition approach overcomes drawbacks of Zn-binders. As shown by global knockout studies. ADAM10 is vital for development, homeostasis and repair, which makes global inhibition of all functions of this enzyme non-feasible as a therapeutic approach. […] In previous research, the instant inventor conducted a HTS campaign to identify inhibitors of ADAM10 and ADAM17. […] This was verified by profiling studies. An exceptional HTS hit, however, is CID3117694 and related compounds (FIG. 7). While it contains highly polar functionality, these groups are not typical Zn binders, such as the hydroxamic acid groups highlighted in LT4, INCB8765, and GI254023X. […] This new class of selective ADAMI0 inhibitors acts via a non-Zn-binding mechanism and that potentially bind outside of an active site at the hitherto unknown secondary substrate binding site (exosite).

ADAM17 [6] = target: T2, ADAM17; assay: ADAM17 counter-screen, HTS campaign and profiling; format: biochemical
Excerpt: as §2

[7] = tested on: broader panel of Zn metalloproteases; assay: Profiling against broader panel of Zn metalloproteases; format: biochemical
Excerpt: as §2

ADAM10 [8] = target: T1, ADAM10; conditions: PubChem AID 743338; cited from earlier work
adrenergic (ADRB2) = adrenergic (ADRB2) (Homo sapiens, UniProt P07550); conditions: PubChem; cited from earlier work
Sequence of adrenergic (ADRB2) (P07550 whole entry, species assumed): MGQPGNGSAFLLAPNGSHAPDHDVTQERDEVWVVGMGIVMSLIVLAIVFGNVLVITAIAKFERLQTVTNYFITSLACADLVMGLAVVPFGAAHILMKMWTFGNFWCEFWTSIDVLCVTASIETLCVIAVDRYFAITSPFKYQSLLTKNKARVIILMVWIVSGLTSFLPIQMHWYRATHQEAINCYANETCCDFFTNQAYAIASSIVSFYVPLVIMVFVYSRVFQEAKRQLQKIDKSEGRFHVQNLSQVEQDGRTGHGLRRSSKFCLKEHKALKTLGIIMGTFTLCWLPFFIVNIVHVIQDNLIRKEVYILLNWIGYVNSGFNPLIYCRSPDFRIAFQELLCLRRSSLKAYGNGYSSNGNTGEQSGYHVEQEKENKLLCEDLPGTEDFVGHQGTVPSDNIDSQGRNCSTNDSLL

muscarinic (CHRM1) = target: T3, muscarinic (CHRM1) (Homo sapiens, UniProt P11229); conditions: PubChem; cited from earlier work
T3 sequence (P11229 1-460): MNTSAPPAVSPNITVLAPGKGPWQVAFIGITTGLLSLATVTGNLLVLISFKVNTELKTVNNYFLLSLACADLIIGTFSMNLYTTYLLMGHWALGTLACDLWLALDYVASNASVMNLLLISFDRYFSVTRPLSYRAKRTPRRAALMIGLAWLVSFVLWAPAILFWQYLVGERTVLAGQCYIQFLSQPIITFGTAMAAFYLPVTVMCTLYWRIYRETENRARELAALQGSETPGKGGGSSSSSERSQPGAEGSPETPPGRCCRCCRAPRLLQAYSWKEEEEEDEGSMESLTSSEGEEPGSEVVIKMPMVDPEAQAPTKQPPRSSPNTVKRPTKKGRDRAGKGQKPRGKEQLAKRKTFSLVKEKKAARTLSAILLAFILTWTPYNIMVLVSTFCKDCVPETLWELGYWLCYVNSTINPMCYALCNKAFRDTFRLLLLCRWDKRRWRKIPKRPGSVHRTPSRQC

opioid receptors (OPRK1) = opioid receptors (OPRK1) (Homo sapiens, UniProt P41145); conditions: PubChem; cited from earlier work
Sequence of opioid receptors (OPRK1) (P41145 whole entry, species assumed): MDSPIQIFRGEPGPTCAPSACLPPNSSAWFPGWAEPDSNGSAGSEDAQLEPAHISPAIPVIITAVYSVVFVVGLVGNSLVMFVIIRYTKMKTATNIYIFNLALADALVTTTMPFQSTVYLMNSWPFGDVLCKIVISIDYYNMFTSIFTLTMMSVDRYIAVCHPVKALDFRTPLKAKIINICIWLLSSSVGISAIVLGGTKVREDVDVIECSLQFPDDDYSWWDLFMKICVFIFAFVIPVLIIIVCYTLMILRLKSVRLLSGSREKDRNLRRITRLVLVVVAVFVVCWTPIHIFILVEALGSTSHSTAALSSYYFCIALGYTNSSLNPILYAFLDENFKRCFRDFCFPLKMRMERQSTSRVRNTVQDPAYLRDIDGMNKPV

opioid receptors (OPRM1) = opioid receptors (OPRM1) (Homo sapiens, UniProt P35372); conditions: PubChem; cited from earlier work
Sequence of opioid receptors (OPRM1) (P35372 whole entry, species assumed): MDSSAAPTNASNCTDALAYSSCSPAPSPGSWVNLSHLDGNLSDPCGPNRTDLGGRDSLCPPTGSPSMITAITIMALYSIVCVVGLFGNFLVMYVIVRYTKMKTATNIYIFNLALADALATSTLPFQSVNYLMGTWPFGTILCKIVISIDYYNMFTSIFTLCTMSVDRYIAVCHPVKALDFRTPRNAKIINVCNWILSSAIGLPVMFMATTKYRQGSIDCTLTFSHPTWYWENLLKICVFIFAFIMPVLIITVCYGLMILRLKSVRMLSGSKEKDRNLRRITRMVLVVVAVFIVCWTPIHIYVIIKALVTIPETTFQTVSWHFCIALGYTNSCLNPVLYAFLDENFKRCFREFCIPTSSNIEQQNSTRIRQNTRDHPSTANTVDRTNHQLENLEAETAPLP

opioid receptors (OPRD1) = opioid receptors (OPRD1) (Homo sapiens, UniProt P41143); conditions: PubChem; cited from earlier work
Sequence of opioid receptors (OPRD1) (P41143 whole entry, species assumed): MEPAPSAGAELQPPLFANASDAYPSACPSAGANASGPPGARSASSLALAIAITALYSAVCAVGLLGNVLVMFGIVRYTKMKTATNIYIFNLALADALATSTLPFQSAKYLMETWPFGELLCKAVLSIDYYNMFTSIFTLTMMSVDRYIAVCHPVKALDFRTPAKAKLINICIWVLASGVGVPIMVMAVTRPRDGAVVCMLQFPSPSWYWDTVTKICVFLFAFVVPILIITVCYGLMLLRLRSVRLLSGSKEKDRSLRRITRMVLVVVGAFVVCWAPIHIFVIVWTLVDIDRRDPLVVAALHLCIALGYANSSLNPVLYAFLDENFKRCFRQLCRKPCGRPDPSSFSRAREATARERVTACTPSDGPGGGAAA

[9] = PubChem database search; cited from earlier work

**Q.** Which IC50 (ADAM10 [1]) does the source give for `CNC(=O)[C@@H](NC(=O)[C@H](CCCc1ccccc1)[C@H](C)N(O)C=O)C(C)(C)C` [GI 254023X] here?
**A.** 5.3 nM

**Q.** And the IC50 (ADAM17 [2])?
**A.** 541 nM

**Q.** Which results are given for `O=C(NO)[C@H]1C[C@H](OC(=O)N2CCCC2)CC[C@@H]1C(=O)N1CCC(c2ccccc2)CC1` [INCB8765]?
**A.** IC50 (ADAM10 [1]): 97 nM; IC50 (ADAM17 [2]): 2040 nM

**Q.** For `COc1ccc2c(c1)c(CC(=O)O)c(C)n2C(=O)c1ccc(Cl)cc1` [Indomethacin, indomethacin, reference compound], which “histopathology of right hind paws” value ([3]; G3, CIA+Indomethacin 2.5 mg Kg) is on record?
**A.** Normal Morphology of bone & cartilage of arthritis joint: Capital SI: Synovial inflammation: Capital H: Hyperplasia

**Q.** Which “% Inhibition” value (CXCL16) does the source give for `COc1cccc(C(=O)NNC(=O)C(=O)Nc2ccc(C)c(Cl)c2)c1` [CID3117694, N-(3-chloro-4-methylphenyl)-2-[2-(3-methoxybenzoyl) hydrazinyl]-2-oxoacetamide] here?
**A.** 80%

**Q.** And the “% Inhibition” value (CCL2-induced)?
**A.** 50%

**Q.** And the “% Inhibition” value (IL8-induced migration)?
**A.** 100%

**Q.** What about the “% Inhibition” value (ICOSL) of the same compound?
**A.** 95%

**Q.** What about the “toxicity in cell-based assays” value [4] of the same compound?
**A.** lack of toxicity

**Q.** What about the ADAM10 inhibitory potency (ADAM10 [5]) of the same compound?
**A.** micromolar-potent

**Q.** What about the “affinity for ADAM17” value (ADAM17 [6]) of the same compound?
**A.** negligible affinity

**Q.** And the “affinity for a broader panel of Zn metalloproteases” value [7]?
**A.** negligible affinity

**Q.** What about the RA disease score ([3]; FIG. 1) of the same compound?
**A.** dose-dependently lowers

**Q.** And the paw swelling ([3]; FIG. 2 measurement, FIGS. 3A-F observation)?
**A.** dose-dependently lowers

**Q.** And the “serum levels of RA biomarker C-reactive protein” value ([3]; FIG. 4)?
**A.** dose-dependently decreases

**Q.** And the “serum levels of RA biomarker Interleukin-6 (IL-6)” value ([3]; FIG. 5)?
**A.** dose-dependently decreases

**Q.** What about the “serum levels of RA biomarker Interleukin-10 (IL-10)” value ([3]; FIG. 6) of the same compound?
**A.** dose-dependently decreases

**Q.** And the “histopathology of right hind paws” value ([3]; G4, CIA+Test Comp 10 mg Kg)?
**A.** Synovial inflammation: Capital H: Hyperplasia: Capital P: Pannus Formation: Capital IEJ: Inflamed & eroded joint

**Q.** And the “histopathology of right hind paws” value ([3]; G5, CIA+Test Comp 30 mg Kg)?
**A.** Synovial inflammation: Capital H: Hyperplasia

**Q.** And the “histopathology of right hind paws” value ([3]; G6, CIA+Test Comp 50 mg Kg)?
**A.** Normal healthy bone & cartilage of arthritis joint: Capital H: Hyperplasia. Capital SI: Synovial inflammation

**Q.** What about the “activity in PubChem bioassay” value (ADAM10 [8]) of the same compound?
**A.** active

**Q.** What about the “activity against ADRB2” value (adrenergic (ADRB2)) of the same compound?
**A.** inactive

**Q.** And the “activity against CHRM1” value (muscarinic (CHRM1))?
**A.** inactive

**Q.** What about the “activity against OPRK1” value (opioid receptors (OPRK1)) of the same compound?
**A.** inactive

**Q.** And the “activity against OPRM1” value (opioid receptors (OPRM1))?
**A.** inactive

**Q.** What about the “activity against OPRD1” value (opioid receptors (OPRD1)) of the same compound?
**A.** inactive

**Q.** And the “biological activity across PubChem bioassays” value [9]?
**A.** inactive in 524 bioassays and active only against 3 targets
